Measured values: publication PMC6026081 (Bioorganic & medicinal chemistry letters, 2017)

Experiments:
[1] = Kinetic solubility by nephelometry; format: physicochemical; conditions: concentration range; for Sol2.0: 0.01 M HCl (approx. pH 2.0); for Sol6.5: pH 6.5 phosphate buffer
[2] = Cytotoxicity, growth inhibition of U-20S cells; format: cell-based; conditions: human
[3] = Cytotoxicity, growth inhibition of HEK293 cells; format: cell-based; conditions: human, HEK293 cells (kidney)
[4] = Cytotoxicity, growth inhibition of HC-04 cells; format: cell-based; conditions: human, HC-04 cells (hepatocyte)
[5] = Plasma exposure after single oral dose in non-infected mice; format: in vivo, male Swiss outbred mice; conditions: single 100 mg/kg oral dose; for systemic exposure (AUC to last measured concentration) relative to 1: fold higher than 1; for plasma concentration maintained over the 48 h sampling period / plasma concentration by ~18 h post-dose: non-infected mice; for plasma concentration maintained over the 48 h sampling period: up to 48 h post-dose
[6] = test system: ex vivo S. mansoni; conditions: cited from earlier work
[7] = 46.3 mg/kg oral dose; cited from earlier work
[8] = cited from earlier work
[9] = test system: S. mansoni; conditions: 400 mg/kg dose; cited from earlier work

Sol2.0 [1] | Sol6.5 [1] | SMILES | IC50 [2] [µM] | IC50 [3] [µM] | IC50 [4] [µM] | other results
3.1–6.3/3.1–6.3 μg/mL | 3.1–6.3/3.1–6.3 μg/mL | O=C(Nc1ccnc(C(F)(F)F)c1)Nc1ccc(F)c(C(F)(F)F)c1 [Compd 18] | > 100 | > 100 | > 100 | systemic exposure (AUC to last measured concentration) relative to 1 [5]: 2–4 fold
<1.6/<1.6 μg/mL | <1.6/<1.6 μg/mL | O=C(Nc1ccc2c(c1)OC(F)(F)O2)Nc1ccc(F)c(C(F)(F)F)c1 [Compd 17] | > 100 | > 100 | > 100 | plasma concentration maintained over the 48 h sampling period [5]: > 5 µM
1.6 to 3.1 µg/mL |  | O=C(Nc1ccc(F)c(C(F)(F)F)c1)Nc1cnccn1 [Compd 9] |  |  |  | 
 | 12.5 to 25 µg/mL | O=C(Nc1ccc(C(=O)O)cc1)Nc1ccc(F)c(C(F)(F)F)c1 [Compd 11] |  |  |  | 
 |  | O=C(Nc1ccc(Cl)c(Cl)c1)Nc1ccc(Cl)c(Cl)c1 [MMV665852] |  |  |  | in vitro selectivity index [6]: 64 fold; potency against ex vivo S. mansoni relative to praziquantel (fold less potent) [6]: 4 fold; half-life [7]: 4.7 h; LogD7.4 [8]: 5.2
3.1–6.3/3.1–6.3 μg/mL | 3.1–6.3/3.1–6.3 μg/mL | O=C(Nc1ccnc(C(F)(F)F)c1)Nc1ccc2c(c1)OC(F)(F)O2 [Compd 20] | > 100 | > 100 | > 100 | plasma concentration maintained over the 48 h sampling period [5]: > 5 µM
6.3–12.5/6.3–12.5 μg/mL | 6.3–12.5/6.3–12.5 μg/mL | O=C(Nc1ccncc1)Nc1ccc(F)c(C(F)(F)F)c1 [Compd 6] |  |  |  | 
50 to 100 µg/mL | 12.5 to 25 µg/mL | O=C(Nc1cccnc1)Nc1ccc(F)c(C(F)(F)F)c1 [Compd 7] |  |  |  | 
12.5–25/12.5–25 μg/mL | 12.5–25/12.5–25 μg/mL | O=C(Nc1ccnc(C(F)(F)F)c1)Nc1ccnc(C(F)(F)F)c1 [Compd 2] | > 100 | > 100 | > 100 | systemic exposure (AUC to last measured concentration) relative to 1 [5]: 2–4 fold
<1.6/<1.6 μg/mL | <1.6/<1.6 μg/mL | N#Cc1ccc(NC(=O)Nc2ccc(F)c(C(F)(F)F)c2)cc1 [Compd 15] | > 100 | > 100 | > 100 | plasma concentration by ~18 h post-dose [5]: below 1 μM
1.6 to 3.1 µg/mL |  | O=C(Nc1ccc(F)c(C(F)(F)F)c1)Nc1ccccn1 [Compd 8] |  |  |  | 
<1.6/<1.6 μg/mL | <1.6/<1.6 μg/mL | O=C(Nc1ccc2c(c1)OC(F)(F)O2)Nc1ccc2c(c1)OC(F)(F)O2 [Compd 5] | > 100 | > 100 | > 100 | plasma concentration maintained over the 48 h sampling period [5]: > 5 µM
 |  | O=C(C1CCCCC1)N1CC(=O)N2CCc3ccccc3C2C1 (stereo not shown) [praziquantel] |  |  |  | worm burden reduction [9]: 96%
1.6 to 3.1 µg/mL | 12.5 to 25 µg/mL | O=C(Nc1cccc(C(=O)O)c1)Nc1ccc(F)c(C(F)(F)F)c1 [Compd 12] |  |  |  | 
12.5 to 25 µg/mL | 6.3 to 12.5 µg/mL | Cc1cc(NC(=O)Nc2ccc(F)c(C(F)(F)F)c2)on1 [Compd 10] |  |  |  | 
 | 12.5 to 25 µg/mL | O=C(Nc1ccncc1)Nc1ccncc1 [Compd 3] |  |  |  | 
<1.6/<1.6 μg/mL | <1.6/<1.6 μg/mL | O=C(Nc1ccc(F)c(C(F)(F)F)c1)Nc1ccc(F)c(C(F)(F)F)c1 [Compd 1] | > 100 | > 100 | > 100 | plasma concentration maintained over the 48 h sampling period [5]: above 1 μM
1.6–3.1/1.6–3.1 μg/mL | 1.6–3.1/1.6–3.1 μg/mL | N#Cc1ccc(NC(=O)Nc2ccnc(C(F)(F)F)c2)cc1 [Compd 19] | > 100 | > 100 | > 100 | plasma concentration by ~18 h post-dose [5]: below 1 μM
1.6–3.1/1.6–3.1 μg/mL | 1.6–3.1/1.6–3.1 μg/mL | NC(=O)c1ccccc1NC(=O)Nc1ccc(F)c(C(F)(F)F)c1 [Compd 14] |  |  |  | 
6.3–12.5/6.3–12.5 μg/mL | 6.3–12.5/6.3–12.5 μg/mL | O=C(Nc1cnccn1)Nc1cnccn1 [Compd 4] |  |  |  | 
6.3–12.5/6.3–12.5 μg/mL | 6.3–12.5/6.3–12.5 μg/mL | NC(=O)c1ccc(NC(=O)Nc2ccc(F)c(C(F)(F)F)c2)cc1 [Compd 13] |  |  |  | 
<1.6/<1.6 μg/mL | <1.6/<1.6 μg/mL | CC(=O)c1ccc(NC(=O)Nc2ccc(F)c(C(F)(F)F)c2)cc1 [Compd 16] |  |  |  | 
